By inhibition is commonly meant the percentage by which the read-out fell short of the control. By IC50 is commonly meant the midpoint of a concentration-inhibition curve.

These results are taken from US12448371B2, “Inhibitor compounds” (Cincera Therapeutics Pty Ltd, priority 2019, dated 2025).

The target in the assay is T1, Des1 (h) (Homo sapiens, UniProt O15121).
T1 construct: endogenous in cells; host or cells: parental Jurkat cells
T1 sequence (O15121 1-323): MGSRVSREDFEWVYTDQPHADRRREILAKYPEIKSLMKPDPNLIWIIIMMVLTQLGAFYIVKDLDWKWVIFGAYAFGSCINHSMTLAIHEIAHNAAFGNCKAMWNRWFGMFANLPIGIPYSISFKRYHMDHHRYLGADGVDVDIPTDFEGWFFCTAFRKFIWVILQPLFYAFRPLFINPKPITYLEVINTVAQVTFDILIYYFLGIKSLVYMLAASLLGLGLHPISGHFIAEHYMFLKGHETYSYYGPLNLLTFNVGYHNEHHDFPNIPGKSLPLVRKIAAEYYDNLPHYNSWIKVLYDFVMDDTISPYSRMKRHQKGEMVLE
The experiment in a line: Measurement of Dihydroceramide Desaturase-1 (Des-1) activity in intact Jurkat cells labeled with DhCer-C6-NBD (HPLC). The assay is classed as cell-based. The settings on record: for IC50: intact Jurkat cells, given as concentration range, or <X / >X if measured at one concentration X only, read-out: Des1 (h) Jurkat IC50. The procedure:
Measurement of Dihydroceramide Desaturase-1 (Des-1) Activity
Compounds were assessed for Des-1 inhibitory activity. Measurement of Des1 activity was performed by HPLC using intact Jurkat cells labeled with DhCer-C6-NBD as described previously (Munoz-Olaya, J. M. et al. ChemMedChem 2008, 3, 946-953) with modifications to enhance sensitivity and reproducibility. These modifications included the use of parental Jurkat cells, 0.5% serum in the culture media, and cell harvesting via centrifugation at 500×g to maximise ceramide extraction. Extracted samples (50 ul) were analysed on a Waters HPLC coupled to a fluorescence detector using a 30 cm C18 reverse-phase column eluted with 1 ml/min 20% H2O and 80% acetonitrile, both with a 0.1% of trifluoroacetic acid. NBD-labelled substrate and product were quantitated with an excitation and emission wavelengths of 465 nm and 530 nm, respectively.

As to `CN(O)S(=O)(=O)c1ccc(Nc2ncc(-c3ccc(C(F)(F)F)cc3)o2)cn1` [Example 15, N-Hydroxy-N-methyl-5-((5-[4-(trifluoromethyl)phenyl]-1,3-oxazol-2-yl)amino) pyridine-2-sulfonamide], the IC50 is above 1000 nM. Moreover, at 1 µM the inhibition (Jurkat cells, 1 μM) was 46%.

As to `Cc1cc(Nc2ncc(-c3ccc(C(F)(F)F)cc3)o2)cc(=O)n1O` [Example 27, 1-Hydroxy-6-methyl-4-((5-(4-(trifluoromethyl)phenyl)oxazol-2-yl)amino)pyridin-2(1H)-one], the half-maximal inhibitory concentration (IC50) was in the range of 0.1 to 1 nM.

Regarding `O=C(NCC(O)CO)c1ccc(Nc2ncc(-c3ccc(C(F)(F)F)cc3)o2)cn1` (racemic) [Example 17, rac-N-(2,3-Dihydroxypropyl)-5-((5-[4-(trifluoromethyl)phenyl]-1,3-oxazol-2-yl)amino) picolinamide], the IC50 lay in the range of 1 to 10 nM.

Consider `O=CNNC(=O)c1ccc(Nc2ncc(-c3ccc(C(F)(F)F)cc3)o2)cn1` [Compound 93, N′-formyl-5-((5-(4-(trifluoromethyl)phenyl)oxazol-2-yl)amino)picolinohydrazide], for which the IC50 is below 1000 nM.

As to `Cn1nc(Nc2cnc(/C(N)=N/O)cn2)cc1-c1ccc(C(F)(F)F)cn1` [Compound 110, N′-Hydroxy-5-((1-methyl-5-(5-(trifluoromethyl)pyridin-2-yl)-1H-pyrazol-3-yl)amino)pyrazine-2-carboximidamide], the IC50 is above 1000 nM. This compound also came in with an inhibition at 1 µM (Jurkat cells, 1 μM) of 31%.

In the case of `N/C(=N\O)c1ccc(Nc2ncc(-c3ccc(C(F)F)cc3)o2)cn1` [Example 52, 5-((5-(4-(Difluoromethyl)phenyl)oxazol-2-yl)amino)-N′-hydroxypicolinimidamide], the concentration for half-maximal inhibition (IC50) was in the range of 100 to 1000 nM.

As for `N=C(NO)c1ccc(Nc2ncc(-c3ccc(F)c(F)c3)o2)nn1` [Example 48, 6-((5-(3,4-Difluorophenyl)oxazol-2-yl)amino)-N′-hydroxypyridazine-3-carboximidamide], the half-maximal inhibitory concentration (IC50) lay in the range of 1 to 10 nM.

`O=C(NO)c1ccc(Nc2nc(-c3ccc(C(F)(F)F)cc3)co2)nn1` [Example 13, N-Hydroxy-6-((4-(4-(trifluoromethyl)phenyl)oxazol-2-yl)amino)pyridazine-3-carboxamide]: the IC50 is 1000 to 10000 nM.

Regarding `O=c1cc(Nc2ncc(-c3ccc(C(F)(F)F)cn3)o2)ccn1O` [Example 68, 1-Hydroxy-4-((5-(5-(trifluoromethyl)pyridin-2-yl)oxazol-2-yl)amino)pyridin-2(1H)-one], the 50% inhibitory concentration (IC50) was below 1000 nM.

Take `Oc1ccc(Nc2ncc(-c3ccc(C(F)(F)F)cc3)o2)nc1` [Example 18, 6-((5-(4-(Trifluoromethyl)phenyl)oxazol-2-yl)amino)pyridin-3-ol]: the 50% inhibitory concentration (IC50) was below 1000 nM.

Consider `N=C(NCC(O)CO)c1ccc(Nc2ncc(-c3ccc(C(F)(F)F)cc3)o2)cn1` (racemic) [Compound 91, rac-N-(2,3-dihydroxypropyl)-5-((5-(4-(trifluoromethyl)phenyl)oxazol-2-yl)amino)picolinimidamide], for which the IC50 is above 1000 nM. Besides, the inhibition at 1 µM (Jurkat cells, 1 μM) worked out at 44%.

As for `N=C(NO)c1ccc(Nc2ncc(-c3ccc(F)cn3)o2)nn1` [Example 49, 6-((5-(5-Fluoropyridin-2-yl)oxazol-2-yl)amino)-N′-hydroxypyridazine-3-carboximidamide], the IC50 is below 100 nM.

Take `O=C(c1ccc(Nc2ncc(-c3ccc(C(F)(F)F)cc3)o2)cn1)N(O)CCO` [Example 22, N-Hydroxy-N-(2-hydroxyethyl)-5-((5-(4-(trifluoromethyl)phenyl)oxazol-2-yl)amino)picolinamide]: the “% inhibition of Des1 at 10 μM” value (Jurkat cells, 10 μM) came out at 81%.

On to `O=C(NO)c1ncc(Nc2ncc(-c3ccc(C(F)(F)F)cc3)o2)cn1` [Example 10], for which the IC50 was in the range of 1000 to 10000 nM.

Consider `N/C(=N\O)c1ccc(Nc2nc(-c3ccc(Cl)cn3)no2)cn1` [Example 80, 5-((3-(5-Chloropyridin-2-yl)-1,2,4-oxadiazol-5-yl)amino)-N′-hydroxypicolinimidamide], for which the IC50 is above 1000 nM. This compound also showed an inhibition at 1 µM (Jurkat cells, 1 μM) of 24%.

For `O=c1c(O)c(Nc2ccc(Nc3ncc(-c4ccc(C(F)(F)F)cc4)o3)cn2)c1=O` [Example 30, 3-Hydroxy-4-((5-((5-(4-(trifluoromethyl)phenyl)oxazol-2-yl)amino)pyridin-2-yl)amino)cyclobut-3-ene-1,2-dione], the concentration for half-maximal inhibition (IC50) was below 1000 nM.

As for `CN(O)C(=O)c1ncc(Nc2ncc(-c3ccc(C(F)(F)F)cc3)o2)cc1O` [Example 28, N,3-Dihydroxy-N-methyl-5-((5-(4-(trifluoromethyl)phenyl)oxazol-2-yl)amino)picolinamide], the IC50 is below 1000 nM.

In the case of `O=C(NC[C@H](O)CO)c1ccc(Nc2ncc(-c3ccc(C(F)(F)F)cc3)o2)cn1` [Example 37, (S)—N-(2,3-Dihydroxypropyl)-5-((5-(4-(trifluoromethyl)phenyl)oxazol-2-yl)amino)picolinamide], the IC50 is above 1000 nM. Further, the “% inhibition of Des1 at 1 μM” value (Jurkat cells, 1 μM) is on record as “no inhibition”.

For `Cc1nc(Nc2cnc(/C(N)=N/O)c(O)c2)oc1-c1ccc(C(F)(F)F)cc1` [Example 39, N′,3-Dihydroxy-5-((4-methyl-5-(4-(trifluoromethyl)phenyl)oxazol-2-yl)amino)picolinimidamide], the IC50 was below 1000 nM.

Take `N/C(=N\O)c1ccc(Nc2ncc(-c3ccc(C(F)(F)F)nn3)o2)cn1` [Compound 119, N′-Hydroxy-5-((5-(6-(trifluoromethyl)pyridazin-3-yl)oxazol-2-yl)amino)picolinimidamide]: the IC50 was above 1000 nM. For the same compound, for the setting “Jurkat cells, 1 μM”, the inhibition at 1 µM was determined as 44%.

`ONc1ccc(Nc2ncc(-c3ccc(C(F)(F)F)cc3)o2)cn1` [Example 4, N-(6-(Hydroxyamino)pyridin-3-yl)-5-(4-(trifluoromethyl)phenyl)oxazol-2-amine]: the concentration for half-maximal inhibition (IC50) is 1000 to 10000 nM.

Turning to `N/C(=N\O)c1ncc(Nc2ncn(-c3ccc(C(F)(F)F)cc3)n2)cc1O` [Example 31, N′,3-Dihydroxy-5-((1-(4-(trifluoromethyl)phenyl)-1H-1,2,4-triazol-3-yl)amino)picolinimidamide], the half-maximal inhibitory concentration (IC50) was below 1000 nM.

As for `Cn1nc(-c2ccc(C(F)(F)F)cn2)cc1Nc1ccc(/C(N)=N\O)nc1` [Example 76, N′-Hydroxy-5-((1-methyl-3-(5-(trifluoromethyl)pyridin-2-yl)-1H-pyrazol-5-yl)amino)picolinimidamide], the 50% inhibitory concentration (IC50) is above 1000 nM. This compound also showed an inhibition at 1 µM (Jurkat cells, 1 μM) of 8%.

In the case of `O=C(NC[C@@H](O)CO)c1ccc(Nc2ncc(-c3ccc(C(F)(F)F)cc3)o2)nn1` [Example 41, (R)—N-(2,3-Dihydroxypropyl)-6-((5-(4-(trifluoromethyl)phenyl)oxazol-2-yl)amino)-pyridazine-3-carboxamide], the IC50 is below 100 nM.

`O=C(NO)c1ccc(Nc2ncc(-c3ccc(Cl)cc3)o2)cn1` [Example 1, 5-((5-(4-Chlorophenyl)oxazol-2-yl)amino)-N-hydroxypicolinamide]: the IC50 fell in the range of 100 to 1000 nM.

For the compound `N/C(=N\O)c1ncc(Nc2ncc(-c3ccc(C(F)(F)F)c(F)c3)o2)cc1O` [Example 43, 5-((5-(3-Fluoro-4-(trifluoromethyl)phenyl)oxazol-2-yl)amino)-N′,3-dihydroxypicolinimidamide], the 50% inhibitory concentration (IC50) was in the range of 1 to 10 nM.

Consider `Cc1cc(Nc2ncc(-c3ccc(C(F)(F)F)cc3)o2)cnc1C(=O)N(C)O` [Example 21, N-Hydroxy-N,3-dimethyl-5-((5-(4-(trifluoromethyl)phenyl)oxazol-2-yl)amino)picolinamide], for which the IC50 is above 1000 nM. The compound also returned an inhibition at 1 µM (Jurkat cells, 1 μM) of 38%.

On to `N/C(=N\O)c1cnc(Nc2nc(-c3ccc(C(F)(F)F)cc3)no2)cn1` [Example 83, N′-Hydroxy-5-((3-(4-(trifluoromethyl)phenyl)-1,2,4-oxadiazol-5-yl)amino)pyrazine-2-carboximidamide], for which the concentration for half-maximal inhibition (IC50) is below 1000 nM.

Consider `N/C(=N\O)c1ccc(Nc2ncc(-c3ccc(C(F)(F)F)cc3)o2)nn1` [Example 53, N′-Hydroxy-6-((5-(4-(trifluoromethyl)phenyl)oxazol-2-yl)amino)pyridazine-3-carboximidamide], for which the IC50 lay within 1 to 10 nM.

As to `N=C(NO)c1ccc(Nc2nnc(-c3ccc(C(F)(F)F)c(F)c3)o2)cn1` [Example 6, 5-((5-[3-Fluoro-4-(trifluoromethyl)phenyl]-1,3,4-oxadiazol-2-yl)amino)-N-hydroxypyridine-2-carboximidamide], the IC50 lay in the range of 100 to 1000 nM.

For the compound `CNNC(=O)c1ccc(Nc2ncc(-c3ccc(C(F)(F)F)cc3)o2)cn1` [Compound 94, N′-Methyl-5-((5-(4-(trifluoromethyl)phenyl)oxazol-2-yl)amino)picolinohydrazide], the 50% inhibitory concentration (IC50) is above 1000 nM. For the setting “Jurkat cells, 1 μM”, this compound yielded an inhibition at 1 µM of 30%.

As to `CN(O)C(=O)Nc1ccc(Nc2ncc(-c3ccc(C(F)(F)F)cc3)o2)cn1` [Example 35, 1-Hydroxy-1-methyl-3-(5-((5-(4-(trifluoromethyl)phenyl)oxazol-2-yl)amino)pyridin-2-yl)urea], the IC50 lay within 10 to 100 nM.
